Test [1] relates to LM2 cells. Description: Lung metastasis formation after tail vein injection of LM2 cells, pharmacological targeting, bioluminescence imaging. Type of test: in vivo, Balb/c nude mice. The conditions noted are these: preliminary results; drugs individually or in combination; FIGS. 2A and 2B.
Protocol: Animal studies. All animal work was done in accordance with an IACUC approved protocol. Four to 6-week-old Balb/c nude mice (NCI) were used for all xenografting studies. For lung metastasis formation, 2×10^5 viable cells were washed and harvested in PBS and subsequently injected into the lateral tail vein in a volume of 0.1 mL. Endpoint assays were conducted at 15 weeks post-injection unless significant morbidity required that the mouse be sacrificed earlier. […] Mice were imaged for luciferase activity immediately after injection to exclude any that were not successfully xenografted.
Bioluminescent imaging and analysis. Mice were anesthetized and retro-orbitally injected with 1.5 mg of D-luciferin (15 mg/mL in PBS). Imaging was completed between 2-5 minutes post-injection using a Xenogen IVIS system coupled to Living Image acquisition and analysis software (Xenogen). For BLI plots, photon flux was calculated for each mouse using a rectangular region of interest (ROI) encompassing the thorax of the mouse in a prone position.
Test [2] has as its system MMP-1, 3, 9, 10 and 11. The conditions noted are these: cited from earlier work.
For test [3], the system named is malignant cell lines. The conditions noted are these: in culture; cited from earlier work.

Molecules are shown by their SMILES.

Take `CNC(=O)[C@H](Cc1c[nH]c2ccccc12)NC(=O)[C@@H](CC(=O)NO)CC(C)C` [GM-6001, Ilomastat]: the preventing lung metastasis result in test [1] is on record as “findings similar to those obtained using genetic knockdowns”.
As for `CCC/C=C/C=C/C(=O)O[C@H]1/C(=C/C(=O)OC)C[C@H]2C[C@H]([C@@H](C)O)OC(=O)C[C@H](O)C[C@@H]3C[C@H](OC(C)=O)C(C)(C)[C@](O)(C[C@@H]4C/C(=C/C(=O)OC)C[C@H](/C=C/C(C)(C)[C@]1(O)O2)O4)O3` [bryostatin-1], in test [2] (by inhibiting PKC), the “production of MMP-1, 3, 9, 10 and 11” value was “can inhibit the production of MMP-1, 3, 9, 10 and 11”. Also, the “direct effect on activity of MMPs” value in test [2] is recorded as “does not directly affect the activity of MMPs”. In addition, in test [3], the “differentiation and growth of malignant cell lines” value was “induce differentiation and halt the growth of several malignant cell lines”.

The values are drawn from patent US8178505B2, “Method of predicting and reducing risk of metastasis of breast cancer to lung” (Sloan-Kettering Institute for Cancer Research, priority 2005, dated 2012).
